# Experimental data from patent publication US20080233127A1, “IMIDAZOLOPYRIMIDINE ANALOGS AND THEIR USE AS PI3 KINASE AND MTOR INHIBITORS” (Wyeth, priority 2007, published 2008).
# What was measured:
# PI3 Kinase = test: PI3K fluorescence polarization assay; format: biochemical; settings: 25 μM ATP, diC8-PI(4,5)P2 substrate, 1 hour at 25° C.; read-out: PI3 Kinase Median IC50
# human TOR = molecular target: T1, human TOR (Homo sapiens, UniProt P42345); test: mTOR enzyme assay (DELFIA format, purified FLAG-TOR, His6-S6K substrate); format: biochemical; settings: 100 μM ATP, 1.25 μM His6-S6K, 2 hours at room temperature; read-out: TOR Kinase Median IC50
# T1 construct: FLAG
Structure (SMILES),IC50 (PI3 Kinase) [µM],IC50 (human TOR) [µM]
"OCc1cccc(-c2nc(N3CCOCC3)c3ncn(CC4CCN(Cc5ccccc5)CC4)c3n2)c1 [Compound 29, (3-(9-((1-benzylpiperidin-4-yl)methyl)-6-morpholino-9H-purin-2-yl)phenyl)methanol]",0.243,10.5
"OCc1cccc(-c2nc(N3CCOCC3)c3ncn(C4CCN(Cc5ccco5)CC4)c3n2)c1 [Compound 52, (3-{9-[1-(2-furylmethyl)piperidin-4-yl]-6-morpholin-4-yl-9H-purin-2-yl}phenyl)methanol]",0.046,0.49
"OCc1ccc(-c2nc(N3CCOCC3)c3nc[nH]c3n2)cc1 [Compound 5, [4-(6-morpholin-4-yl-9H-purin-2-yl)phenyl]methanol]",3.75,4.5
"CC(C)(C)OC(=O)N1CCC(n2cnc3c(N4CCOCC4)nc(-c4cccc(O)c4)nc32)CC1 [Compound 57, tert-butyl 4-{2-(3-hydroxyphenyl)-6-morpholino-9H-purin-9-yl}piperidine-1-carboxylate]",0.288,0.27
"COc1cc(COc2cccc(-c3nc(N4CCOCC4)c4nc[nH]c4n3)c2)cc(OC)c1 [Compound 23, 2-[3-(3,5-Dimethoxy-benzyloxy)-phenyl]-6-morpholin-4-yl-9H-purine]",6.2,16.5
"OCc1cncc(-c2nc(N3CCOCC3)c3ncn(C4CCN(Cc5ccccc5)CC4)c3n2)c1 [Compound 35, {5-[9-(1-benzylpiperidin-4-yl)-6-morpholin-4-yl-9H-purin-2-yl]pyridin-3-yl}methanol]",0.063,1

# Now from value to molecule:
IC50 (PI3 Kinase) [µM],IC50 (human TOR) [µM],Structure (SMILES)
0.05,0.58,"OCc1cccc(-c2nc(N3CCOCC3)c3ncn(C4CCN(Cc5cccc(Br)n5)CC4)c3n2)c1 [Compound 71, [3-(9-{1-[(6-bromopyridin-2-yl)methyl]piperidin-4-yl}-6-morpholin-4-yl-9H-purin-2-yl)phenyl]methanol]"
0.34,0.0097,"CNC(=O)Nc1ccc(-c2nc(N3CCOCC3)c3ncn(C4CCN(Cc5cccnc5)CC4)c3n2)cc1 [Compound 89, 1-methyl-3-(4-(6-morpholino-9-(1-(pyridin-3-ylmethyl)piperidin-4-yl)-9H-purin-2-yl)phenyl)urea]"
0.07,0.31,"Oc1cccc(-c2nc(N3CCOCC3)c3ncn(C4CCN(Cc5ccc(F)nc5)CC4)c3n2)c1 [Compound 84, 3-(9-{1-[(6-fluoropyridin-3-yl)methyl]piperidin-4-yl}-6-morpholin-4-yl-9H-purin-2-yl)phenol]"
0.016,> 4,CN(C)CCCOc1ccc(CN2CCC(n3cnc4c(N5CCOCC5)nc(-c5cccc(CO)c5)nc43)CC2)cc1 [Compound 75]
0.152,1.5,"OCc1cccc(-c2nc(N3CCOCC3)c3ncn(C4CCN(Cc5ncc[nH]5)CC4)c3n2)c1 [Compound 70, (3-{9-[1-(1H-imidazol-2-ylmethyl)piperidin-4-yl]-6-morpholin-4-yl-9H-purin-2-yl}phenyl)methanol]"
0.085,0.5,"Oc1cncc(-c2nc(N3CCOCC3)c3ncn(C4CCN(Cc5ccc(F)nc5)CC4)c3n2)c1 [Compound 88, 5-(9-{1-[(6-fluoropyridin-3-yl)methyl]piperidin-4-yl}-6-morpholin-4-yl-9H-purin-2-yl)pyridin-3-ol]"
0.518,> 4,"Cc1ccc(CN2CCC(n3cnc4c(N5CCOCC5)nc(-c5cccc(CO)c5)nc43)CC2)s1 [Compound 67, [3-(9-{1-[(5-methyl-2-thienyl)methyl]piperidin-4-yl}-6-morpholin-4-yl-9H-purin-2-yl)phenyl]methanol]"
0.163,9.8,"Oc1cccc(-c2nc(N3CCOCC3)c3ncn(CCN4CCCCC4)c3n2)c1 [Compound 85, 3-[6-morpholin-4-yl-9-(2-piperidin-1-ylethyl)-9H-purin-2-yl]phenol]"
